The source of these data is ChEMBL document CHEMBL5625219, “Design, synthesis fusidic acid derivatives alleviate acute lung injury via inhibiting MAPK/NF-κB/NLRP3 pathway” (Eur J Med Chem, 2023).

The term IC50 denotes the concentration needed to halve the response being measured.

The subject of one data set is RAW264.7. In words: Cytotoxicity against mouse RAW264.7 cells assessed as reduction in cell viability at 30 uM incubated for 24 hrs by MTT assay relative to control. In kind it is toxicity, cell-based. The settings on record: raw264.7, 24 h. (Tetrazolium dyes change colour on reduction, which living cells bring about.)
The nature of data set [1]: Cytotoxicity against mouse RAW264.7 cells assessed as inhibition of cell growth incubated for 24 hrs by MTT assay. In kind it is toxicity, cell-based.

On to `COc1cc(-c2nnc(COC(=O)/C(CCC=C(C)C)=C3\[C@@H](OC(C)=O)C[C@@]4(C)[C@H]3C[C@@H](O)[C@H]3[C@@]5(C)CC[C@@H](O)[C@@H](C)[C@@H]5CC[C@@]34C)o2)cc(OC)c1OC`, for which the Activity in the data set with RAW264.7 worked out at 97.84%. Besides, the IC50 at 24 h in data set [1] worked out at 129 µM.

As to `COc1cc(-n2cc(COC(=O)/C(CCC=C(C)C)=C3\[C@@H](OC(C)=O)C[C@@]4(C)[C@H]3C[C@@H](O)[C@H]3[C@@]5(C)CC[C@@H](O)[C@@H](C)[C@@H]5CC[C@@]34C)nn2)cc(OC)c1OC`, the Activity with RAW264.7 is reported as 98.92%. Further, the IC50 at 24 h in data set [1] is 120 µM.

Take `CC(=O)O[C@H]1C[C@@]2(C)[C@@H](C[C@@H](O)[C@H]3[C@@]4(C)CC[C@@H](O)[C@@H](C)[C@@H]4CC[C@@]32C)/C1=C(\CCC=C(C)C)C(=O)OCc1cn(-c2ccc(Cl)c(Cl)c2)nn1`: the Activity in the data set on RAW264.7 is reported as 104.17%. Besides, the IC50 at 24 h in data set [1] was 56.1 µM.

Regarding `CC(=O)O[C@H]1C[C@@]2(C)[C@@H](C[C@@H](O)[C@H]3[C@@]4(C)CC[C@@H](O)[C@@H](C)[C@@H]4CC[C@@]32C)/C1=C(\CCC=C(C)C)C(=O)OCc1cc(-c2ccc(Cl)c(Cl)c2)no1`, the Activity in the data set with RAW264.7 is on record as 94.05%. Besides, the IC50 at 24 h in data set [1] stood at 44.6 µM.

With `CC(=O)O[C@H]1C[C@@]2(C)[C@@H](C[C@@H](O)[C@H]3[C@@]4(C)CC[C@@H](O)[C@@H](C)[C@@H]4CC[C@@]32C)/C1=C(\CCC=C(C)C)C(=O)OCc1cn(-c2ccc(Cl)cc2)nn1`, the Activity in the data set with RAW264.7 is listed as 101.39%. Also, the IC50 at 24 h in data set [1] worked out at 119 µM.

Consider `CC(=O)O[C@H]1C[C@@]2(C)[C@@H](C[C@@H](O)[C@H]3[C@@]4(C)CC[C@@H](O)[C@@H](C)[C@@H]4CC[C@@]32C)/C1=C(\CCC=C(C)C)C(=O)OCc1cc(-c2ccc(Cl)cc2)no1`, for which the Activity with RAW264.7 was 103.94%. For the same molecule, the IC50 at 24 h in data set [1] turned out to be 42 µM.

Consider `CC(=O)O[C@H]1C[C@@]2(C)[C@@H](C[C@@H](O)[C@H]3[C@@]4(C)CC[C@@H](O)[C@@H](C)[C@@H]4CC[C@@]32C)/C1=C(\CCC=C(C)C)C(=O)OCc1nnc(-c2ccccc2)o1`, for which, in the data set with RAW264.7, the Activity was 102.94%. Moreover, the IC50 at 24 h in data set [1] was 40.1 µM.

`CC(=O)O[C@H]1C[C@@]2(C)[C@@H](C[C@@H](O)[C@H]3[C@@]4(C)CC[C@@H](O)[C@@H](C)[C@@H]4CC[C@@]32C)/C1=C(\CCC=C(C)C)C(=O)OCc1cc(-c2ccc(F)cc2)no1`: in the data set with RAW264.7, the Activity amounted to 103.63%. The IC50 at 24 h in data set [1] was determined as 62.4 µM.

For the molecule `COc1ccc(Cn2cc(COC(=O)/C(CCC=C(C)C)=C3\[C@@H](OC(C)=O)C[C@@]4(C)[C@H]3C[C@@H](O)[C@H]3[C@@]5(C)CC[C@@H](O)[C@@H](C)[C@@H]5CC[C@@]34C)nn2)cc1`, in the data set on RAW264.7, the Activity worked out at 100.31%. Also, in data set [1], the IC50 at 24 h is 110 µM.

Take `COc1ccc(-c2cc(COC(=O)/C(CCC=C(C)C)=C3\[C@@H](OC(C)=O)C[C@@]4(C)[C@H]3C[C@@H](O)[C@H]3[C@@]5(C)CC[C@@H](O)[C@@H](C)[C@@H]5CC[C@@]34C)on2)cc1`: the Activity in the data set with RAW264.7 is listed as 97.68%. In data set [1], the IC50 at 24 h is 77.2 µM.

As to `CC(=O)O[C@H]1C[C@@]2(C)[C@@H](C[C@@H](O)[C@H]3[C@@]4(C)CC[C@@H](O)[C@@H](C)[C@@H]4CC[C@@]32C)/C1=C(\CCC=C(C)C)C(=O)OCc1cn(Cc2ccc(Cl)c(Cl)c2)nn1`, the Activity with RAW264.7 is 100.62%. Further, the IC50 at 24 h in data set [1] stood at 49.8 µM.

For `CC(=O)O[C@H]1C[C@@]2(C)[C@@H](C[C@@H](O)[C@H]3[C@@]4(C)CC[C@@H](O)[C@@H](C)[C@@H]4CC[C@@]32C)/C1=C(\CCC=C(C)C)C(=O)OCc1cc(-c2ccc(C)cc2)no1`, in the data set with RAW264.7, the Activity turned out to be 104.48%. Moreover, in data set [1], the IC50 at 24 h was determined as 75.9 µM.

`COc1cc(-c2cc(COC(=O)/C(CCC=C(C)C)=C3\[C@@H](OC(C)=O)C[C@@]4(C)[C@H]3C[C@@H](O)[C@H]3[C@@]5(C)CC[C@@H](O)[C@@H](C)[C@@H]5CC[C@@]34C)on2)cc(OC)c1OC`: the Activity with RAW264.7 is 95.67%. In addition, the IC50 at 24 h in data set [1] was 50.6 µM.

As for `CC(=O)O[C@H]1C[C@@]2(C)[C@@H](C[C@@H](O)[C@H]3[C@@]4(C)CC[C@@H](O)[C@@H](C)[C@@H]4CC[C@@]32C)/C1=C(\CCC=C(C)C)C(=O)OCc1cc(-c2ccc(Br)cc2)no1`, the Activity with RAW264.7 came out at 96.29%. In data set [1], the IC50 at 24 h is 40.9 µM.

Regarding `COc1ccc(-n2cc(COC(=O)/C(CCC=C(C)C)=C3\[C@@H](OC(C)=O)C[C@@]4(C)[C@H]3C[C@@H](O)[C@H]3[C@@]5(C)CC[C@@H](O)[C@@H](C)[C@@H]5CC[C@@]34C)nn2)cc1`, in the data set with RAW264.7, the Activity is recorded as 99.38%. Moreover, the IC50 at 24 h in data set [1] worked out at 43.6 µM.

In the case of `CC(=O)O[C@H]1C[C@@]2(C)[C@@H](C[C@@H](O)[C@H]3[C@@]4(C)CC[C@@H](O)[C@@H](C)[C@@H]4CC[C@@]32C)/C1=C(\CCC=C(C)C)C(=O)OCc1cn(Cc2ccc(Cl)cc2)nn1`, the Activity in the data set on RAW264.7 was 90.57%. Besides, the IC50 at 24 h in data set [1] is 72.5 µM.

For the molecule `CC(=O)O[C@H]1C[C@@]2(C)[C@@H](C[C@@H](O)[C@H]3[C@@]4(C)CC[C@@H](O)[C@@H](C)[C@@H]4CC[C@@]32C)/C1=C(\CCC=C(C)C)C(=O)OCc1nnc(-c2ccc(F)cc2)o1`, the Activity in the data set with RAW264.7 is 102.47%. Also, the IC50 at 24 h in data set [1] was determined as 47.9 µM.

Consider `COc1cc(Cn2cc(COC(=O)/C(CCC=C(C)C)=C3\[C@@H](OC(C)=O)C[C@@]4(C)[C@H]3C[C@@H](O)[C@H]3[C@@]5(C)CC[C@@H](O)[C@@H](C)[C@@H]5CC[C@@]34C)nn2)cc(OC)c1OC`, for which the Activity with RAW264.7 is recorded as 97.45%. The IC50 at 24 h in data set [1] worked out at 56.1 µM.

Turning to `CC(=O)O[C@H]1C[C@@]2(C)[C@@H](C[C@@H](O)[C@H]3[C@@]4(C)CC[C@@H](O)[C@@H](C)[C@@H]4CC[C@@]32C)/C1=C(\CCC=C(C)C)C(=O)OCc1cn(-c2ccc(C)cc2)nn1`, the Activity in the data set on RAW264.7 is given as 96.68%. Further, in data set [1], the IC50 at 24 h stood at 89.6 µM.

For `CC(=O)O[C@H]1C[C@@]2(C)[C@@H](C[C@@H](O)[C@H]3[C@@]4(C)CC[C@@H](O)[C@@H](C)[C@@H]4CC[C@@]32C)/C1=C(\CCC=C(C)C)C(=O)OCc1cc(-c2ccccc2)no1`, the Activity in the data set on RAW264.7 came to 104.11%. Moreover, in data set [1], the IC50 at 24 h turned out to be 93 µM.

Consider `CC(=O)O[C@H]1C[C@@]2(C)[C@@H](C[C@@H](O)[C@H]3[C@@]4(C)CC[C@@H](O)[C@@H](C)[C@@H]4CC[C@@]32C)/C1=C(\CCC=C(C)C)C(=O)OCc1cn(Cc2ccccc2)nn1`, for which the Activity with RAW264.7 stood at 98.53%. The IC50 at 24 h in data set [1] is 88.3 µM.

As to `COc1ccc(-c2cc(COC(=O)/C(CCC=C(C)C)=C3\[C@@H](OC(C)=O)C[C@@]4(C)[C@H]3C[C@@H](O)[C@H]3[C@@]5(C)CC[C@@H](O)[C@@H](C)[C@@H]5CC[C@@]34C)on2)cc1OC`, the Activity in the data set on RAW264.7 turned out to be 100.7%. In addition, the IC50 at 24 h in data set [1] came out at 87.3 µM.

Turning to `CC(=O)O[C@H]1C[C@@]2(C)[C@@H](C[C@@H](O)[C@H]3[C@@]4(C)CC[C@@H](O)[C@@H](C)[C@@H]4CC[C@@]32C)/C1=C(\CCC=C(C)C)C(=O)OCc1cn(Cc2ccc([N+](=O)[O-])cc2)nn1`, the Activity in the data set with RAW264.7 was determined as 101.85%. Also, in data set [1], the IC50 at 24 h came out at 56.8 µM.

`CC(=O)O[C@H]1C[C@@]2(C)[C@@H](C[C@@H](O)[C@H]3[C@@]4(C)CC[C@@H](O)[C@@H](C)[C@@H]4CC[C@@]32C)/C1=C(\CCC=C(C)C)C(=O)OCc1cn(Cc2ccc(Br)cc2)nn1`: the Activity with RAW264.7 turned out to be 100.93%. For the same molecule, the IC50 at 24 h in data set [1] came out at 88.7 µM.

For the molecule `CC(=O)O[C@H]1C[C@@]2(C)[C@@H](C[C@@H](O)[C@H]3[C@@]4(C)CC[C@@H](O)[C@@H](C)[C@@H]4CC[C@@]32C)/C1=C(\CCC=C(C)C)C(=O)OCc1nnc(-c2ccc(Cl)cc2)o1`, the Activity with RAW264.7 is reported as 103.01%. Also, the IC50 at 24 h in data set [1] was 44.3 µM.

For the molecule `COc1ccc(-n2cc(COC(=O)/C(CCC=C(C)C)=C3\[C@@H](OC(C)=O)C[C@@]4(C)[C@H]3C[C@@H](O)[C@H]3[C@@]5(C)CC[C@@H](O)[C@@H](C)[C@@H]5CC[C@@]34C)nn2)cc1OC`, the Activity in the data set on RAW264.7 amounted to 102.78%. For the same molecule, the IC50 at 24 h in data set [1] was 76.6 µM.

Take `CC(=O)O[C@H]1C[C@@]2(C)[C@@H](C[C@@H](O)[C@H]3[C@@]4(C)CC[C@@H](O)[C@@H](C)[C@@H]4CC[C@@]32C)/C1=C(\CCC=C(C)C)C(=O)OCc1cn(Cc2ccc(C)cc2)nn1`: in the data set on RAW264.7, the Activity was found to be 105.96%. Further, the IC50 at 24 h in data set [1] was 121 µM.

For `COc1ccc(-c2nnc(COC(=O)/C(CCC=C(C)C)=C3\[C@@H](OC(C)=O)C[C@@]4(C)[C@H]3C[C@@H](O)[C@H]3[C@@]5(C)CC[C@@H](O)[C@@H](C)[C@@H]5CC[C@@]34C)o2)cc1`, the Activity with RAW264.7 was found to be 101.7%. The concentration for half-maximal inhibition (IC50) at 24 h in data set [1] turned out to be 114 µM.

Consider `CC(=O)O[C@H]1C[C@@]2(C)[C@@H](C[C@@H](O)[C@H]3[C@@]4(C)CC[C@@H](O)[C@@H](C)[C@@H]4CC[C@@]32C)/C1=C(\CCC=C(C)C)C(=O)OCc1cn(-c2ccc([N+](=O)[O-])cc2)nn1`, for which, in the data set on RAW264.7, the Activity came out at 101.62%. Besides, in data set [1], the IC50 at 24 h stood at 120 µM.

As for `CC(=O)O[C@H]1C[C@@]2(C)[C@@H](C[C@@H](O)[C@H]3[C@@]4(C)CC[C@@H](O)[C@@H](C)[C@@H]4CC[C@@]32C)/C1=C(\CCC=C(C)C)C(=O)OCc1nnc(-c2ccc([N+](=O)[O-])cc2)o1`, the Activity in the data set on RAW264.7 stood at 103.17%. In addition, in data set [1], the IC50 at 24 h was found to be 100 µM.

As for `CC(=O)O[C@H]1C[C@@]2(C)[C@@H](C[C@@H](O)[C@H]3[C@@]4(C)CC[C@@H](O)[C@@H](C)[C@@H]4CC[C@@]32C)/C1=C(\CCC=C(C)C)C(=O)OCc1cn(-c2ccc(Br)cc2)nn1`, the Activity in the data set with RAW264.7 is 92.58%. For the same molecule, in data set [1], the IC50 at 24 h was 54.5 µM.

Consider `CC(=O)O[C@H]1C[C@@]2(C)[C@@H](C[C@@H](O)[C@H]3[C@@]4(C)CC[C@@H](O)[C@@H](C)[C@@H]4CC[C@@]32C)/C1=C(\CCC=C(C)C)C(=O)OCc1cn(Cc2ccc(F)cc2)nn1`, for which the Activity in the data set with RAW264.7 is reported as 103.74%. Also, the IC50 at 24 h in data set [1] was 68.7 µM.
